For one test, the target named is DNA-PK (Homo sapiens (Human), UniProt P78527). Briefly: DNA-PK Enzyme-Linked Immunosorbent Assay (phosphorylation of GST-p53 (1-101) peptide). It is filed as biochemical. The settings on record: ELISA. An outline of the steps:
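ELISA with plate-bound GST-p53 (1-101) phosphorylated by DNA-PK (0.1 μg/mL final) with 20 μM ATP for 1 h at 25 °C. Compounds tested over 10 3-fold doses from 100 nM top final. Phospho-p53 Ser15 detected by antibody, HRP and TMB, absorbance at 450 nm.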

Another test concerns the target ATM (Homo sapiens (Human), UniProt Q13315). Kind of test: ATM in Cell Western Assay (pKAP1 in etoposide-treated MCF-7 cells). It is filed as cell-based. An outline of the steps:
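Cells received compounds in a 10-dose, 3-fold series from a 1 μM final top concentration, then 100 μM etoposide, for 1 hr at 37° C. They were then fixed with paraformaldehyde and permeabilized with 0.1% Triton X-100. After immunostaining, plates were scanned on an infrared imager.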

[1] abbreviates: pKAP1 in etoposide-treated MCF-7 cells.
Where [2] appears, read: MCF-7 cells, etoposide 100 μM, 1 hr, pKAP1 readout.

As usually defined, the IC50 is the concentration that inhibits the measured activity by half.

Structures can show the parent of a compound that is named as a salt.

Sequence of ATM (Q13315 whole entry): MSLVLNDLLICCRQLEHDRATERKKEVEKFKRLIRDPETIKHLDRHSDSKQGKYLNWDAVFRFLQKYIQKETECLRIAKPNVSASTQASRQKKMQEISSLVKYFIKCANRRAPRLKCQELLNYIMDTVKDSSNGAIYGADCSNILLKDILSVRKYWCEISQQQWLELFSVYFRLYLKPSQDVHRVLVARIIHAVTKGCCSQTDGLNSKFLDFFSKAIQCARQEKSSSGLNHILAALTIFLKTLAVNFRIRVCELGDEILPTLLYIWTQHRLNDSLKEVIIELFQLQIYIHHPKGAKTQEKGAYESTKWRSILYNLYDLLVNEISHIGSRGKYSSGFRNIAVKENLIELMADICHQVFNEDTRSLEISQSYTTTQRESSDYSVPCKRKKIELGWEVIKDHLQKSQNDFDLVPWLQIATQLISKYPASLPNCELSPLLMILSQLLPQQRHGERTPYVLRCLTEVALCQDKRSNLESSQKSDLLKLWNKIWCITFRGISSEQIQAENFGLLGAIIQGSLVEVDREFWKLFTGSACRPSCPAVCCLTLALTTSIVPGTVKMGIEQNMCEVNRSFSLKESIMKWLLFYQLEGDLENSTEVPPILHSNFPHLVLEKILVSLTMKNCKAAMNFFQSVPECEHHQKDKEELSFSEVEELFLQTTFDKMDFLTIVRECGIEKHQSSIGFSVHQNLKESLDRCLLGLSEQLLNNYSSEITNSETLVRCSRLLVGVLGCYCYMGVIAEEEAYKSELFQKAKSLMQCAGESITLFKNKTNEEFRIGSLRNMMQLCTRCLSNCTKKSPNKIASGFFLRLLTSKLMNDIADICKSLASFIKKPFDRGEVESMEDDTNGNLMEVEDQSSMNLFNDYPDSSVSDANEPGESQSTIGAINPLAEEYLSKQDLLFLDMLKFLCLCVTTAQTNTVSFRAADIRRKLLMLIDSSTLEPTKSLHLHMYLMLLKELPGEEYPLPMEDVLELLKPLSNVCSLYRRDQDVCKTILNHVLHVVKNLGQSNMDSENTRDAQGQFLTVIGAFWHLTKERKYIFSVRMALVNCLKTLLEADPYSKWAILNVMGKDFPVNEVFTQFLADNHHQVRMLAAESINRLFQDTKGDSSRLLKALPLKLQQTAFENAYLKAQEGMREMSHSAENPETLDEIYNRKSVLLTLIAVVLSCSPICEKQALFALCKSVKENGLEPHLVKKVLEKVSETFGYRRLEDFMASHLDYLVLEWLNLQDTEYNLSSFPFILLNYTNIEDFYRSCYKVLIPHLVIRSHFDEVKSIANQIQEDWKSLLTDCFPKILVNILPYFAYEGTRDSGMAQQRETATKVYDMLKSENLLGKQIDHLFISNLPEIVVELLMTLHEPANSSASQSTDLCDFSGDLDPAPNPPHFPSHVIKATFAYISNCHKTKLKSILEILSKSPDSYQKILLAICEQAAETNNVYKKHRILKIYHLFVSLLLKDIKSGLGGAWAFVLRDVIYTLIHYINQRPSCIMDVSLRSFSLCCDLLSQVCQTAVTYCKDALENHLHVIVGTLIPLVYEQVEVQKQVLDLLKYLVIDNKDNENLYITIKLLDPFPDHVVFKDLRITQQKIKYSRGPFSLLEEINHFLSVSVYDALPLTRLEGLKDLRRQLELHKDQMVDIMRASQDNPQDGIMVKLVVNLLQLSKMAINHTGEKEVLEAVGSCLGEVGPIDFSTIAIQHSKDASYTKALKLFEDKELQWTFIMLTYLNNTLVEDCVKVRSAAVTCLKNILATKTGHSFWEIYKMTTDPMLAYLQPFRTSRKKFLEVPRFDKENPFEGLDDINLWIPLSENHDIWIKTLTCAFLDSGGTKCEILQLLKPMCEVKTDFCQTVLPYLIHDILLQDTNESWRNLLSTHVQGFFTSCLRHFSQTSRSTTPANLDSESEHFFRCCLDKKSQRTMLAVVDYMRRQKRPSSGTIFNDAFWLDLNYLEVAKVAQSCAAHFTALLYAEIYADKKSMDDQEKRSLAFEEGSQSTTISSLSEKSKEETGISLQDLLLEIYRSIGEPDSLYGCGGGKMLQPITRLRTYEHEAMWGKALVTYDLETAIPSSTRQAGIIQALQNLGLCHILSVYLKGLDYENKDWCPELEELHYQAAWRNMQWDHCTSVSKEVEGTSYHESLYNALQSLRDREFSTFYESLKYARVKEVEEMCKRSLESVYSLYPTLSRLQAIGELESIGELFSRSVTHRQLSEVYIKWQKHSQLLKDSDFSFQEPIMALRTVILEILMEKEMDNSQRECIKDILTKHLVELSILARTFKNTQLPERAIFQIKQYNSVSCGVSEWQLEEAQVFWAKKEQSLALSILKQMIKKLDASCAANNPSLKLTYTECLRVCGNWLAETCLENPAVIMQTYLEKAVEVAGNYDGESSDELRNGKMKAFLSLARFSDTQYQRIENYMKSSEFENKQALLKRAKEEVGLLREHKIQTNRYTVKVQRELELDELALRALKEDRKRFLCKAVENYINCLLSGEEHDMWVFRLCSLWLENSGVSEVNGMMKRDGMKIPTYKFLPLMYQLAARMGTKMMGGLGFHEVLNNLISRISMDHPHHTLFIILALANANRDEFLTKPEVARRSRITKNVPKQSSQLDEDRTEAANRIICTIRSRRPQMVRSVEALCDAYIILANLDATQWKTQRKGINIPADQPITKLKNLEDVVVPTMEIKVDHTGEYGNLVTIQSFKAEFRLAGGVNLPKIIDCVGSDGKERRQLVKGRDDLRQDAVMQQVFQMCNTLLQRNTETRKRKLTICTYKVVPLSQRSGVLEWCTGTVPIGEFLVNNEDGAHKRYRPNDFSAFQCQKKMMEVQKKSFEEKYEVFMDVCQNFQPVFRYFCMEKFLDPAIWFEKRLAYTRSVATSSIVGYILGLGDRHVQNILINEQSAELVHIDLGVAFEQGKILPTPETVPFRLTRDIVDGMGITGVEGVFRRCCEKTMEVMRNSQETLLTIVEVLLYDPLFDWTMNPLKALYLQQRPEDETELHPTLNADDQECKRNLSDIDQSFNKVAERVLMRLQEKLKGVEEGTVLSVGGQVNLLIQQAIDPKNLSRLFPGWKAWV

As for `Cc1ccccc1N1CC2(C1)C(=O)N(C)c1cnc3cc(F)c(-c4cnc(OCCNC(C)C)c(NS(C)(=O)=O)c4)cc3c12` [Example 528, N-(5-(7′-Fluoro-3′-methyl-2′-oxo-1-(o-tolyl)-2′,3′-dihydrospiro[azetidine-3,1′-pyrrolo[2,3-c]quinolin]-8′-yl)-2-(2-(isopropylamino)ethoxy)pyridin-3-yl)methanesulfonamide], the half-maximal inhibitory concentration (IC50) was less than 0.5 nM against DNA-PK (20 μM ATP) and 1 to 100 nM on ATM (setting [1]).
For `CCN(C)S(=O)(=O)Nc1cc(-c2ccc3ncc4c(c3c2)C2(CCC2)C(=O)N4C)cnc1N1CC(N(C)C)C1` [Example 339, 8′-{6-[3-(Dimethylamino)azetidin-1-yl]-5-{[ethyl(methyl)sulfamoyl]amino}pyridin-3-yl}-3′-methyl-2′,3′-dihydrospiro [cyclobutane-1,1′-pyrrolo[2,3-c]quinoline]-2′-one] the same measures were 1 to 100 nM and 1 to 100 nM.
With `CN1CCN(S(=O)(=O)Nc2cc(-c3ccc4ncc5c(c4c3)C3(CCC3)C(=O)N5C)cnc2OCCCN2CCCCC2)CC1` [Example 200], the IC50 is less than 0.5 nM against DNA-PK (ATP 20 μM) and 0.5 to 1 nM against ATM (setting [2]).
On the same counts, the results for `CCS(=O)(=O)Nc1cc(-c2ccc3ncc4c(c3c2)C2(CCC2)C(=O)N4C)cnc1OCCCN(C)C` [Example 238, N-(2-(3-(Dimethylamino)propoxy)-5-(3′-methyl-2′-oxo-2′,3′-dihydrospiro [cyclobutane-1,1′-pyrrolo[2,3-c]quinolin]-8′-yl)pyridin-3-yl) ethanesulfonamide] are 1 to 100 nM and 1 to 100 nM.
For the molecule `CO[C@H]1C[C@@]2(C1)C(=O)N(C)c1cnc3ccc(-c4cnc(OCCNC(C)C)c(NS(C)(=O)=O)c4)cc3c12` [Example 384, trans-N-(2-(2-(Isopropylamino)ethoxy)-5-(3-methoxy-3′-methyl-2′-oxo-2,3′-dihydrospiro[cyclobutane-1,1′-pyrrolo[2,3-c]quinolin]-8′-yl)pyridin-3-yl)methanesulfonamide hydrochloride], the concentration for half-maximal inhibition (IC50) on DNA-PK (20 μM ATP) was less than 0.5 nM; against ATM (setting [1]), 1 to 100 nM.
For `CC(C)NCCOc1ncc(-c2cc3c(cc2F)ncc2c3[C@]3(C[C@@H](c4cccc(F)c4)C3)C(=O)N2C)cc1NS(C)(=O)=O` [Example 425, trans-N-(5-(7′-Fluoro-3-(3-fluorophenyl)-3′-methyl-2′-oxo-2′,3′-dihydrospiro[cyclobutane-1,1′-pyrrolo[2,3-c]quinolin]-8′-yl)-2-(2-(isopropylamino)ethoxy)pyridin-3-yl)methanesulfonamide] the same measures were 1 to 100 nM and more than 100 nM.
Consider `CN(C)CCCOc1ncc(-c2ccc3ncc4c(c3c2)C2(CCC2)C(=O)N4C)cc1NS(C)(=O)=O` [Example 189, N-(2-(3-(Dimethylamino)propoxy)-5-(3′-methyl-2′-oxo-2′,3′-dihydrospiro [cyclobulane-1,1′-pyrrolo[2,3-c]quinolin]-8′-yl)pyridin-3-yl) methanesulfonamide], for which the IC50 on DNA-PK (ATP 20 μM) is less than 0.5 nM; on ATM (setting [2]) it was 1 to 100 nM.
For `CN1C(=O)C2(CCC2)c2c1cnc1cc(F)c(-c3cnc(N4CC(N(C)C)C4)c(NS(=O)(=O)c4ccccc4)c3)cc21` [Example 324, N-(2-(3-(Dimethylamino)azetidin-1-yl)-5-(7′-fluoro-3′-methyl-2′-oxo-2′,3′-dihydrospiro[cyclobutane-1,1′-pyrrolo[2,3-c]quinolin]-8′-yl)pyridin-3-yl)benzenesulfonamide hydrochloride], the half-inhibitory concentration (IC50) on DNA-PK (ATP 20 μM) and against ATM (setting [2]) was 1 to 100 nM throughout.
For `CC(C)NCCOc1ncc(-c2cc3c(cc2F)ncc2c3[C@]3(C[C@H](c4cccc(Cl)c4)C3)C(=O)N2C)cc1NS(C)(=O)=O` [Example 418, cis-N-(5-(3-(3-Chlorophenyl)-7′-fluoro-3′-methyl-2′-oxo-2′,3′-dihydrospiro[cyclobutane-1,1′-pyrrolo[2,3-c]quinolin]-8′-yl)-2-(2-(isopropylamino)ethoxy)pyridin-3-yl)methanesulfonamide], the IC50 against DNA-PK (20 μM ATP) and against ATM (setting [1]) was 1 to 100 nM in each case.
Take `CC(C)NCCOc1ncc(-c2cc3c(cc2F)ncc2c3[C@]3(C[C@@H](c4ccc(F)cc4)C3)C(=O)N2C)cc1NS(C)(=O)=O` [Example 423, trans-N-(5-(7′-Fluoro-3-(4-fluorophenyl)-3′-methyl-2′-oxo-2′,3′-dihydrospiro[cyclobutane-1,1′-pyrrolo[2,3-c]quinolin]-8′-yl)-2-(2-(isopropylamino)ethoxy)pyridin-3-yl)methanesulfonamide]: the IC50 against DNA-PK (20 μM ATP) and against ATM (setting [1]) was 1 to 100 nM each time.
For the molecule `CC(C)NCCOc1ncc(-c2cc3c(cc2F)ncc2c3[C@]3(C[C@@H](c4ccccc4F)C3)C(=O)N2C)cc1NS(C)(=O)=O` [Example 427, trans-N-(5-(7′-Fluoro-3-(2-fluorophenyl)-3′-methyl-2′-oxo-2′,3′-dihydrospiro[cyclobutane-1,1′-pyrrolo[2,3-c]quinolin]-8′-yl)-2-(2-(isopropylamino)ethoxy)pyridin-3-yl)methanesulfonamide], the IC50 against DNA-PK (20 μM ATP) was 1 to 100 nM; against ATM (setting [1]) it was more than 100 nM.
As to `Cc1cc(S(=O)(=O)Nc2cc(-c3ccc4ncc5c(c4c3)C3(CCC3)C(=O)N5C)cnc2OCCCN(C)C)sn1` [Example 170, N-(2-(3-(Dimethylamino)propoxy)-5-(3′-methyl-2′-oxo-2′,3′-dihydrospiro [cyclobutane-1,1′-pyrrolo[2,3-c]quinolin]-8′-yl)pyridin-3-yl)-3-methylisothiazole-5-sulfonamide hydrochloride], the values for the IC50 against DNA-PK (ATP 20 μM) and on ATM (setting [2]) were less than 0.5 nM and 1 to 100 nM, respectively.
For `CN1C(=O)C2(CCC2)c2c1cnc1ccc(-c3cnc(OCCCN4CCCC(O)C4)c(NS(C)(=O)=O)c3)cc21` (stereo not drawn) [Example 270, N-(2-(3-(3-Hydroxypiperidin-1-yl)propoxy)-5-(3′-methyl-2′-oxo-2′,3′-dihydrospiro[cyclobutane-1,1′-pyrrolo[2,3-c]quinolin]-8′-yl)pyridin-3-yl)methanesulfonamide] the same measures were 1 to 100 nM and 1 to 100 nM.
Regarding `CC(C)NCCOc1ncc(-c2cc3c(cc2F)ncc2c3[C@]3(C[C@@H](c4ccncc4)C3)C(=O)N2C)cc1NS(C)(=O)=O` [Example 439, trans-N-{5-(7′-Fluoro-3′-methyl-2′-oxo-3-(pyridin-4-yl)-2′,3′-dihydrospiro[cyclobutane-1,1′-pyrrolo[2,3-c]quinolin]-8′-yl)-2-(2-(isopropylamino)ethoxy)pyridin-3-yl)methanesulfonamide], the values for the IC50 against DNA-PK (20 μM ATP) and against ATM (setting [1]) were 1 to 100 nM and more than 100 nM, respectively.
For the molecule `CN1C(=O)C2(CCC2)c2c1cnc1ccc(-c3cnc(OCCCN4CCCCC4)c(NS(=O)(=O)c4cccnc4)c3)cc21` [Example 252, N-(5-(3′-Methyl-2′-oxo-2′,3′-dihydrospiro [cyclobutane-1,1′-pyrrolo [2,3-c]quinolin]-8′-yl)-2-(3-(piperidin-1-yl)propoxy)pyridin-3-yl)pyridine-3-sulfonamide], the 50% inhibitory concentration (IC50) on DNA-PK (ATP 20 μM) and at ATM (setting [2]) was 1 to 100 nM throughout.
Consider `COc1ccccc1N1CC2(C1)C(=O)N(C)c1cnc3cc(F)c(-c4cnc(OCCNC(C)C)c(NS(C)(=O)=O)c4)cc3c12` [Example 535, N-(5-(7′-Fluoro-1-(2-methoxyphenyl)-3′-methyl-2′-oxo-2′,3′-dihydrospiro [azetidine-3,1′-pyrrolo[2,3-c]quinolin]-8′-yl)-2-(2-(isopropylamino)ethoxy)pyridin-3-yl)methanesulfonamide], for which the IC50 on DNA-PK (20 μM ATP) and against ATM (setting [1]) was 1 to 100 nM in each case.
Consider `CN1C(=O)C2(CCC2)c2c1cnc1ccc(-c3cnc(N4CCC(N5CCCC(F)(F)C5)CC4)c(NS(C)(=O)=O)c3)cc21` [Example 251, N-(2-(3,3-Difluoro-[1,4′-bipiperidin]-1′-yl)-5-(3′-methyl-2′-oxo-2′,3′-dihydrospiro[cyclobutane-1,1′-pyrrolo[2,3-c]quinolin]-8′-yl)pyridin-3-yl)methanesulfonamide], for which the IC50 fell in the range of 0.5 to 1 nM against DNA-PK (ATP 20 μM) and 1 to 100 nM against ATM (setting [2]).
On the same counts, the results for `CNC1CN(c2ncc(-c3cc4c5c(cnc4cc3F)N(C)C(=O)C53CCC3)cc2NS(C)(=O)=O)C1` [Example 330, N-(5-(7′-Fluor-3′-methyl-2′-oxo-2′,3′-dihydrospiro [cyclobutane-1,1-pyrrolo[2,3-c]quinolin]-8′-yl)-2-(3-(methylamino)azetidin-1-yl)pyridin-3-yl) methanesulfonamide formate] are 0.5 to 1 nM and 1 to 100 nM.
Consider `CC(C)NCCOc1ncc(-c2cc3c4c(cnc3cc2F)N(C)C(=O)C42CN(C(C)C)C2)cc1NS(=O)(=O)C1CC1` [Example 484, N-(5-(7′-Fluoro-1-isopropyl-3′-methyl-2′-oxo-2′,3′-dihydrospiro[azetidine-3,1′-pyrrolo[2,3-c]quinolin]-8′-yl)-2-(2-(isopropylamino)ethoxy)pyridin-3-yl)cyclopropanesulfonamide], for which the half-maximal inhibitory concentration (IC50) against DNA-PK (20 μM ATP) and at ATM (setting [1]) was 1 to 100 nM throughout.
With `COC1CCN(CCCOc2ncc(-c3ccc4ncc5c(c4c3)C3(CCC3)C(=O)N5C)cc2NS(C)(=O)=O)C1` (stereo not drawn) [Example 283, N-(2-(3-(3-Methoxypyrrolidin-1-yl)propoxy)-5-(3′-methyl-2′-oxo-2′,3′-dihydrospiro[cyclobutane-1,1′-pyrrolo[2,3-c]quinolin]-8′-yl)pyridin-3-yl)methanesulfonamide], the IC50 against DNA-PK (ATP 20 μM) lay in the range of 0.5 to 1 nM; against ATM (setting [2]) it was 1 to 100 nM.
Regarding `CN(C)CCCOc1ncc(-c2ccc3ncc4c(c3c2)C2(CC2)C(=O)N4C)cc1NS(=O)(=O)C1COC1` [Example 76], the half-inhibitory concentration (IC50) on DNA-PK (ATP 20 μM) was in the range of 0.5 to 1 nM; at ATM (setting [2]) it was 1 to 100 nM.

These data come from patent publication US12187742B2 (XRAD Therapeutics, Inc., priority 2018, dated 2025).
